Assays:
[1] = tested on: NB(TU)1-10 (Neuroblastoma); assay: Bliss excess, mean over the matrix (fraction); higher = more synergy
Outline: (§1)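 After 24 hours at 37°C and 5% CO2 in 1536-well plates, cells in DMEM/F12 or RPMI plus 10% FBS received two-drug dose matrices for 72 hours. Viability came from CellTiter-Glo 2.0 luminescence and was scaled as inhibition, anchored at 0 by vehicle wells and at 1 by blank wells. Combination Emax is taken as the second-highest inhibition in the matrix, and Bliss excess as the observed combination effect less EA + EB − EA·EB, with EA and EB the single-agent effects.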

[2] = tested on: BB49-HNC (Head and Neck Carcinoma); assay: as above
Outline: as §1

[3] = tested on: NCI-H211 (Small Cell Lung Carcinoma); assay: as above
Outline: as §1

[4] = tested on: COR-L95 (Small Cell Lung Carcinoma); assay: combination Emax (second highest fraction inhibited in the dose matrix, 72 h); higher = more inhibition; extreme values may be limits of the assay
Outline: as §1

[5] = tested on: NB(TU)1-10 (Neuroblastoma); assay: as above
Outline: as §1

[6] = tested on: BB49-HNC (Head and Neck Carcinoma); assay: as above
Outline: as §1

[7] = tested on: NCI-H211 (Small Cell Lung Carcinoma); assay: as above
Outline: as §1

[8] = tested on: SW1088 (Low Grade Glioma); assay: as above
Outline: as §1
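Wherever Bliss excess, mean over the matrix is given: after 72 h of two-drug dosing.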

Row | Structure (SMILES) | Bliss excess [1] | Bliss excess [2] | Bliss excess [3] | combination Emax [4] | combination Emax [5] | combination Emax [6] | combination Emax [7] | combination Emax [8]
1 | CN(C)CCCOc1ccc(-c2ccc3ncc4c(c3c2)n(C2CCOCC2)c(=O)n4C)cn1 [AZD0156] + O=C(c1cc(Cc2n[nH]c(=O)c3ccccc23)ccc1F)N1CCN(C(=O)C2CC2)CC1 [Olaparib] (first compound max 3 µM, partner max 3 µM) | -0.037 | 0.165 | 0.0397 | 0.373 | 0.356 | 0.598 | 0.598 | 0.417
2 | C=CCn1c(=O)c2cnc(Nc3ccc(N4CCN(C)CC4)cc3)nc2n1-c1cccc(C(C)(C)O)n1 [AZD1775] + C1CN(CCC1(C(=O)N[C@@H](CCO)C2=CC=C(C=C2)Cl)N)C3=NC=NC4=C3C=CN4 [Capivasertib] (first compound max 3 µM, partner max 3 µM) | -0.0584 | -0.0204 | -0.0643 | 0.666 | 0.583 | 0.936 | 0.901 | 0.723
3 | C=CCn1c(=O)c2cnc(Nc3ccc(N4CCN(C)CC4)cc3)nc2n1-c1cccc(C(C)(C)O)n1 [AZD1775] + C[C@@H]1COCCN1C2=NC(=NC(=C2)C3(CC3)[S@](=N)(=O)C)C4=C5C=CNC5=NC=C4 [AZD6738] (first compound max 1 µM, partner max 10 µM) | 0.0985 | – | – | 0.737 | 0.875 | – | – | 0.684
4 | COc1cccc(OCCCN)c1-c1cc(Nc2cnc(C#N)cn2)n[nH]1 [Prexasertib] + Cc1cc2ncnn2cc1Nc1ncc2c(n1)n(C1CCOCC1)c(=O)n2C [AZD7648] (first compound max 1 µM, 7x7, partner max 10 µM) | -0.0498 | – | – | 0.644 | 0.94 | – | – | 0.762
5 | COc1cccc(OCCCN)c1-c1cc(Nc2cnc(C#N)cn2)n[nH]1 [Prexasertib] + CCc1c2c(nc3ccc(O)cc13)-c1cc3c(c(=O)n1C2)COC(=O)[C@]3(O)CC [SN-38] (first compound max 1 µM, 7x7, partner max 0.3 µM) | -0.0763 | – | – | 0.844 | 0.922 | – | – | 0.849
6 | Cc1cc2ncnn2cc1Nc1ncc2c(n1)n(C1CCOCC1)c(=O)n2C [AZD7648] + CCN(CCO)CCCOc1ccc2c(Nc3cc(CC(=O)Nc4cccc(F)c4)[nH]n3)ncnc2c1 [AZD2811] (first compound max 10 µM, 7x7, partner max 1 µM) | -0.0403 | – | – | 0.256 | 0.297 | – | – | 0.686
7 | Cc1cc2ncnn2cc1Nc1ncc2c(n1)n(C1CCOCC1)c(=O)n2C [AZD7648] + O=C(c1cc(Cc2n[nH]c(=O)c3ccccc23)ccc1F)N1CCN(C(=O)C2CC2)CC1 [Olaparib] (first compound max 10 µM, 7x7, partner max 10 µM) | -0.0408 | – | – | 0.363 | 0.263 | – | – | 0.303
8 | COc1cccc(OCCCN)c1-c1cc(Nc2cnc(C#N)cn2)n[nH]1 [Prexasertib] + CN(C)CCCOc1ccc(-c2ccc3ncc4c(c3c2)n(C2CCOCC2)c(=O)n4C)cn1 [AZD0156] (first compound max 1 µM, 7x7, partner max 1 µM) | -0.0519 | – | – | 0.644 | 0.934 | – | – | 0.797
9 | CCN(CCO)CCCOc1ccc2c(Nc3cc(CC(=O)Nc4cccc(F)c4)[nH]n3)ncnc2c1 [AZD2811] + C=CCn1c(=O)c2cnc(Nc3ccc(N4CCN(C)CC4)cc3)nc2n1-c1cccc(C(C)(C)O)n1 [AZD1775] (first compound max 1 µM, partner max 1 µM) | 0.0337 | – | – | 0.655 | 0.881 | – | – | 0.47
10 | COc1cccc(OCCCN)c1-c1cc(Nc2cnc(C#N)cn2)n[nH]1 [Prexasertib] + C[C@@H]1COCCN1C2=NC(=NC(=C2)C3(CC3)[S@](=N)(=O)C)C4=C5C=CNC5=NC=C4 [AZD6738] (first compound max 1 µM, 7x7, partner max 10 µM) | -0.141 | – | – | 0.675 | 0.94 | – | – | 0.762
11 | CN(C)CCCOc1ccc(-c2ccc3ncc4c(c3c2)n(C2CCOCC2)c(=O)n4C)cn1 [AZD0156] + C[C@@H]1COCCN1C2=NC(=NC(=C2)C3(CC3)[S@](=N)(=O)C)C4=C5C=CNC5=NC=C4 [AZD6738] (first compound max 1 µM, 7x7, partner max 10 µM) | -0.0026 | – | – | 0.525 | 0.798 | – | – | 0.57
12 | COc1cccc2c1C(=O)c1c(O)c3c(c(O)c1C2=O)C[C@@](O)(C(=O)CO)C[C@@H]3O[C@H]1C[C@H](N)[C@H](O)[C@H](C)O1 [Doxorubicin] + Cc1cc2ncnn2cc1Nc1ncc2c(n1)n(C1CCOCC1)c(=O)n2C [AZD7648] (first compound max 1 µM, 7x7, partner max 10 µM) | 0.0954 | – | – | 0.865 | 0.793 | – | – | 0.477

Reference: the supplement of paper PMC11061612
